Structures are written as SMILES. Converted amounts (≈) assume the structure as drawn.

The first test deals with T1, penicillin-binding protein 1b from E. coli (transglycosylase) (Escherichia coli, UniProt P02919).
T1 construct: PBP1b[58-804] was amplified from E. coli genomic DNA and cloned into the expression vector pET15b; His6 (N, cleaved yes); made in house; host or cells: E. coli BL21(DE3)
T1 sequence (P02919 58-804): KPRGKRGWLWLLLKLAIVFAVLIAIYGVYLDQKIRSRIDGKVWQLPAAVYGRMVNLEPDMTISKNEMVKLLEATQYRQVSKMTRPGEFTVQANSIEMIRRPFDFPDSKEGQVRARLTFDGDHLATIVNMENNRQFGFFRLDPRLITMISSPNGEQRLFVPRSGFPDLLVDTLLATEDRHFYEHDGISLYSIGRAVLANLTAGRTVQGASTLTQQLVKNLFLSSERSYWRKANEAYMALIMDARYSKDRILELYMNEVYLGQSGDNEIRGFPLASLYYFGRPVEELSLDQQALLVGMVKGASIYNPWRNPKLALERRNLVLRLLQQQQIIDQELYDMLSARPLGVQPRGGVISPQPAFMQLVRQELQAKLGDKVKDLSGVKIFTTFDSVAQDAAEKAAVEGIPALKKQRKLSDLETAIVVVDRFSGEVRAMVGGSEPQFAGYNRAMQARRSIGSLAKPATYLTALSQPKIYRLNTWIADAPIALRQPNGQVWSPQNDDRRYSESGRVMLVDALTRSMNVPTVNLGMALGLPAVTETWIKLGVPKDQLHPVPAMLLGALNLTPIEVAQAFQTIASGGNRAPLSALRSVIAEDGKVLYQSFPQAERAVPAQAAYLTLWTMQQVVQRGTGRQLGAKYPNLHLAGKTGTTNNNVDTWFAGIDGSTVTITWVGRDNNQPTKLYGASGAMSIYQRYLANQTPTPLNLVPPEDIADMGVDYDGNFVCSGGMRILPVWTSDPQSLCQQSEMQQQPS
Put plainly: Lipid II polymerization / transglycosylase (TG) activity assay. Format: biochemical. The note with it: 25 μM compound; TG activity remaining (0% = full inhibition). How it is done:
Lipid II polymerization assays were carried out by incubating 100 μM fluorophore-labeled lipid II and penicillin-binding protein 1b from E. coli in tubes containing 10 ng/μL N-acetyl muramidase in 50 mM Tris.HCl (pH 8.0), 10 mM MgCl2, 0.1% Triton X-100, 10% DMSO, and 15% MeOH for 30 minutes (Van Nieuwenhze et al. J Am Chem Soc 2002, 124, 3656.). The fluorophore can be dansyl chloride, NBD, BODIPY, fluorescein. Reaction supernatants were then injected onto an anion-exchange HPLC column (SAX1, Supelco Co.) and eluted with a linear gradient of ammonium acetate (20 mM to 0.5 M) in methanol. The eluant was monitored for fluorescence with λex=466 nm and λem=535 nm.
Purified protein was concentrated in 20 mM Tris-HCl (pH 8.0), 300 mM NaCl, and 1 mM DDM. Instead of using Dansyl lipid II, 6-(N-(7-nitrobenz-2-oxa-1,3-diazol-4-yl)amino) hexanoyl (NBD)-labeled Lipid II was prepared as described (Taubes G (2008) Science 321:356-361; Payne D J (2008) Science 321:1644-1645) and used as a substrate to measure TG enzymatic activity, with approach similar to what has been described previously (Holtje J V (1998) Microbiol Mol Biol Rev 62:181-203). Assays were carried out by using the following condition: NBD-Lipid II, 20 nM protein, 50 mM Tris HCl (pH 8.0), 10 mMCaCl2, 0.085% decyl PEG (Anatrace), and 15% MeOH at 37° C. for 0, 1, 3, 5, 7, 9, 20, and 30 min. The concentration of NBD-Lipid II was varied from 1 to 100 μM to determine the rate of the TG activity. After the reaction, 200 μM moenomycin was added to stop the reaction, and 13 μM muramidase (Sigma-Aldrich) was added to digest the TG products to result in NBD-Lipid II without lipid tails. The fluorescent signal decrease of substrate and increase of NBD-Lipid II without lipid tails were detected by anion-exchange column SAX1 (Supelco) on HPLC (Hitachi). The elution procedures was a linear gradient of ammonium acetate (20 mM to 1 M) in MeOH monitored at λexcitation=466 nm and λemission=535 nm. The kinetic parameter was estimated by following the Michaelis-Menten equation. To investigate the importance of transmembrane (TM) helix, PBP1b and PBP1bΔTM (residues Met-1 to Leu-87 were removed) were extracted with the buffer containing 20 mM Tris-HCl (pH 8.0), 300 mM NaCl, and 13 mM FOS-CHOLINE-14 (Anatrace). The protein was purified by nickel chelation chromatography in the presence of 1 mM DDM. The activity assay was carried out by using the following condition: 12 μM NBD-Lipid II, 20 nM protein, 50 mM Tris-HCl (pH 8.0), 10 mM CaCl2, 0.085% decyl PEG, and 15% MeOH at 37° C. for time 0, 1, 3, 5, 7, 9, 20, and 30 min. The initial velocity was used to compare the activity of full-length PBP1b and PBP1bΔTM.
On to `Cc1ccc(C(C)C)c(Oc2ccccc2NC(=O)c2cc(I)cc(I)c2O)c1` [Compound 201], for which the “TG Activity at various concentration of cmpd: 25 μM” value (from here on “TG Activity … 25 μM”) is listed as 30%.

In the case of `Cc1ccc(C(C)C)c(Oc2cc(Cl)ccc2NC(=O)c2cc(Br)cc(Br)c2O)c1` [Compound 202], the “TG Activity … 25 μM” value stood at 20%.

In the case of `Cc1ccc(C(C)C)c(Oc2ccccc2NC(=O)c2cc(Br)cc(Br)c2O)c1` [Compound 204], the “TG Activity … 25 μM” value amounted to 50%.

Still in this test, the particulars now being: 50 μM compound; TG activity remaining (0% = full inhibition).
`Cc1ccc(C(=O)c2cc(Cl)cc(NC(=O)c3cc(Br)cc(Br)c3O)c2Cl)cc1` [Compound 145]: the “TG Activity at various concentration of cmpd: 50 μM” value (“TG Activity … 50 μM” below) worked out at 100%.

`Cc1ccc(C(C)C)c(Oc2ccccc2NC(=O)c2cc(I)cc(I)c2O)c1` [Compound 201]: the “TG Activity … 50 μM” value came to 0%.

With `Cc1ccc(C(C)C)c(Oc2cc(Cl)ccc2NC(=O)c2cc(Br)cc(Br)c2O)c1` [Compound 202], the “TG Activity … 50 μM” value came to 0%.

As to `Cc1ccc(C(C)C)c(Oc2ccccc2NC(=O)c2cc(Br)cc(Br)c2O)c1` [Compound 204], the “TG Activity … 50 μM” value is on record as 0%.

In the case of `Cc1ccc(C(C)C)cc1Oc1ccc(Cl)cc1NC(=O)c1cc(Cl)ccc1O` [Compound 205], the “TG Activity … 50 μM” value turned out to be 90%.

`O=C(Nc1ccccc1Oc1ccccc1)c1cc(Br)cc(Br)c1O` [Compound A1N2]: the “TG Activity … 50 μM” value stood at 100%.

As for `O=C(Nc1ccc(Cl)cc1)c1cc(Br)cc(Br)c1O` [Compound A1N4], the “TG Activity … 50 μM” value is 100%.

On to `O=C(Nc1cc(Cl)ccc1Oc1ccccc1)c1cc(Br)cc(Br)c1` [Compound A2N1], for which the “TG Activity … 50 μM” value worked out at 100%.

Turning to `O=C(Nc1ccccc1Oc1ccccc1)c1cc(Br)cc(Br)c1` [Compound A2N2], the “TG Activity … 50 μM” value stood at 100%.

Consider `Cc1ccc(NC(=O)c2cc(Br)cc(Br)c2)cc1Cl` [Compound A2N3], for which the “TG Activity … 50 μM” value amounted to 100%.

Take `O=C(Nc1cc(Cl)ccc1Oc1ccccc1)c1ccccc1O` [Compound A3N1]: the “TG Activity … 50 μM” value was determined as 100%.

As for `O=C(Nc1ccccc1Oc1ccccc1)c1ccccc1O` [Compound A3N2], the “TG Activity … 50 μM” value was 100%.

`O=C(Nc1cc(Cl)ccc1Oc1ccccc1)c1ccccc1` [Compound A4N1]: the “TG Activity … 50 μM” value amounted to 100%.

Still in this test, the particulars now being: 100 μM compound; TG activity remaining (0% = full inhibition).
For the compound `Cc1ccc(C(=O)c2cc(Cl)cc(NC(=O)c3cc(Br)cc(Br)c3O)c2Cl)cc1` [Compound 145], the “TG Activity at various concentration of cmpd: 100 μM” value (“TG Activity … 100 μM” for short) turned out to be 0%.

For `O=C(Nc1ccccc1Oc1ccccc1)c1cc(Br)cc(Br)c1O` [Compound A1N2], the “TG Activity … 100 μM” value came out at 100%.

Turning to `O=C(Nc1cc(Cl)ccc1Oc1ccccc1)c1cc(Br)cc(Br)c1` [Compound A2N1], the “TG Activity … 100 μM” value amounted to 100%.

With `O=C(Nc1ccccc1Oc1ccccc1)c1cc(Br)cc(Br)c1` [Compound A2N2], the “TG Activity … 100 μM” value was 100%.

Consider `Cc1ccc(NC(=O)c2cc(Br)cc(Br)c2)cc1Cl` [Compound A2N3], for which the “TG Activity … 100 μM” value was 100%.

`O=C(Nc1cc(Cl)ccc1Oc1ccccc1)c1ccccc1O` [Compound A3N1]: the “TG Activity … 100 μM” value is reported as 100%.

`O=C(Nc1ccccc1Oc1ccccc1)c1ccccc1O` [Compound A3N2]: the “TG Activity … 100 μM” value is reported as 100%.

Take `O=C(Nc1cc(Cl)ccc1Oc1ccccc1)c1ccccc1` [Compound A4N1]: the “TG Activity … 100 μM” value is 100%.

The next test concerns Staphylococcus aureus (ATCC29213, SA). As to the kind of experiment: Minimal inhibitory concentration (MIC), SA. Type of test: cell-based. The note with it: Staphylococcus aureus ATCC29213. How it is done: (§1) The minimal inhibitory concentration (MIC) of tested compounds was determined following the NCCLS standard. The experiments were conducted in 96-well microtiter plates using two-fold dilutions in Muller-Hilton broth with (Streptococcus pneumonia) or without blood (Bacillus subtilis, Enterococcus faecalis, Staphylococcus aureus, Escherichia coli, MRSA, Actinetobacter baumannii, Pseudomonas aeruginosa, Stenotrophomonas maltophilia, and Mycobacterium smegmatis). Exponentially growing cells at 5×10^5 cells/ml were incubated with test compounds at various concentrations. After an 18 h to 24 h incubation at 37° C., MIC was determined as the minimal concentration of the compound that prevents bacterial growth.
`Cc1ccc(C(=O)c2cc(Cl)cc(NC(=O)c3cc(Br)cc(Br)c3O)c2Cl)cc1` [Compound 145]: the “MIC SA” value is more than 4 µg/mL.

`Cc1ccc(C(C)C)c(Oc2ccccc2NC(=O)c2cc(I)cc(I)c2O)c1` [Compound 201]: the “MIC SA” value turned out to be 4 µg/mL (≈ 6.52 µM).

Turning to `Cc1ccc(C(C)C)c(Oc2cc(Cl)ccc2NC(=O)c2cc(Br)cc(Br)c2O)c1` [Compound 202], the “MIC SA” value stood at 1 µg/mL (≈ 1.81 µM).

As to `Cc1ccc(C(C)C)c(Oc2ccccc2NC(=O)c2cc(Br)cc(Br)c2O)c1` [Compound 204], the “MIC SA” value stood at 1 µg/mL (≈ 1.93 µM).

In the case of `Cc1ccc(C(C)C)cc1Oc1ccc(Cl)cc1NC(=O)c1cc(Cl)ccc1O` [Compound 205], the “MIC SA” value stood at 0.5 µg/mL (≈ 1.16 µM).

Take `O=C(Nc1ccccc1Oc1ccccc1)c1cc(Br)cc(Br)c1O` [Compound A1N2]: the “MIC SA” value is more than 32 µg/mL.

For the compound `O=C(Nc1ccc(Cl)cc1)c1cc(Br)cc(Br)c1O` [Compound A1N4], the “MIC SA” value turned out to be 1 µg/mL (≈ 2.47 µM).

Turning to `O=C(Nc1cc(Cl)ccc1Oc1ccccc1)c1cc(Br)cc(Br)c1` [Compound A2N1], the “MIC SA” value was more than 32 µg/mL.

On to `O=C(Nc1ccccc1Oc1ccccc1)c1cc(Br)cc(Br)c1` [Compound A2N2], for which the “MIC SA” value was more than 32 µg/mL.

`Cc1ccc(NC(=O)c2cc(Br)cc(Br)c2)cc1Cl` [Compound A2N3]: the “MIC SA” value is more than 32 µg/mL.

As for `O=C(Nc1cc(Cl)ccc1Oc1ccccc1)c1ccccc1O` [Compound A3N1], the “MIC SA” value was 1 µg/mL (≈ 2.94 µM).

As for `O=C(Nc1ccccc1Oc1ccccc1)c1ccccc1O` [Compound A3N2], the “MIC SA” value was determined as 8 µg/mL (≈ 26.2 µM).

As to `O=C(Nc1cc(Cl)ccc1Oc1ccccc1)c1ccccc1` [Compound A4N1], the “MIC SA” value was more than 32 µg/mL.

The test system of the next test is methicillin-resistant Staphylococcus aureus (ATCC33592, MRSA). Put plainly: Minimal inhibitory concentration (MIC), MRSA. Type of test: cell-based. The note with it: methicillin-resistant Staphylococcus aureus ATCC33592. As for the experimental part:
as §1
On to `Cc1ccc(C(=O)c2cc(Cl)cc(NC(=O)c3cc(Br)cc(Br)c3O)c2Cl)cc1` [Compound 145], for which the “MIC MRSA” value is more than 4 µg/mL.

Consider `Cc1ccc(C(C)C)c(Oc2ccccc2NC(=O)c2cc(I)cc(I)c2O)c1` [Compound 201], for which the “MIC MRSA” value stood at 2 µg/mL (≈ 3.26 µM).

For the compound `Cc1ccc(C(C)C)c(Oc2cc(Cl)ccc2NC(=O)c2cc(Br)cc(Br)c2O)c1` [Compound 202], the “MIC MRSA” value turned out to be 1 µg/mL (≈ 1.81 µM).

As to `Cc1ccc(C(C)C)c(Oc2ccccc2NC(=O)c2cc(Br)cc(Br)c2O)c1` [Compound 204], the “MIC MRSA” value is 4 µg/mL (≈ 7.7 µM).

On to `Cc1ccc(C(C)C)cc1Oc1ccc(Cl)cc1NC(=O)c1cc(Cl)ccc1O` [Compound 205], for which the “MIC MRSA” value is 0.5 µg/mL (≈ 1.16 µM).

The next test has as its system Mycobacterium smegmatis (ATCC11565, MS). Put plainly: Minimal inhibitory concentration (MIC), MS. Format: cell-based. Particulars: Mycobacterium smegmatis ATCC11565. How it is done:
as §1
With `Cc1ccc(C(=O)c2cc(Cl)cc(NC(=O)c3cc(Br)cc(Br)c3O)c2Cl)cc1` [Compound 145], the “MIC MS” value is more than 4 µg/mL.

Take `Cc1ccc(C(C)C)c(Oc2ccccc2NC(=O)c2cc(I)cc(I)c2O)c1` [Compound 201]: the “MIC MS” value was 8 µg/mL (≈ 13 µM).

In the case of `Cc1ccc(C(C)C)c(Oc2cc(Cl)ccc2NC(=O)c2cc(Br)cc(Br)c2O)c1` [Compound 202], the “MIC MS” value was 1 µg/mL (≈ 1.81 µM).

With `Cc1ccc(C(C)C)c(Oc2ccccc2NC(=O)c2cc(Br)cc(Br)c2O)c1` [Compound 204], the “MIC MS” value is 8 µg/mL (≈ 15.4 µM).

Consider `Cc1ccc(C(C)C)cc1Oc1ccc(Cl)cc1NC(=O)c1cc(Cl)ccc1O` [Compound 205], for which the “MIC MS” value came to 1 µg/mL (≈ 2.32 µM).

(Values after US9890111B2, “Crystal structure of bifunctional transglycosylase PBP1b from E. coli and inhibitors thereof” (Academia Sinica, priority 2008, dated 2018).)
